The values that follow come from patent US20220002551A1, “A NOVEL CLASS OF PIGMENTS IN ASPERGILLUS” (DANMARKS TEKNISKE UNIVERSITET, priority 2019, published 2022).

The data set can be described thus: Color intensity E1% of cavernamine-L powder and its formulation. It is filed as physicochemical. The procedure:
The dilution mixture was adjusted to pH 5 with Sodium Hydroxide 2 M. The cavernamine-L powder was added to the dilution mixture in a concentration of 0.5 g/L and mixed for 5 minutes. The colored solution was then frozen prior to lyophilzation. Diluted red powder was recovered and the color intensity of the formulated cavernamine-L was detected to be E1% (at 492 nm) of 2.2, compared to E1% (at 492 nm) of 220 of original pure cavernamine-L powder.

For the compound `C/C=C\C1=CC2=CC3=C(C(=O)C(C)CC)C(=O)OC3(C)C(=O)C2=CN1C(CC(C)C)C(=O)O` (stereo not drawn) [cis-cavernamine-L], the “color intensity E1% (at 492 nm)” value was found to be 220.
